Experimental data from patent US12391737B2, “Soluble NPY2 receptor agonists” (Boehringer Ingelheim International GmbH, priority 2020, dated 2025).
*1 amine or outer side, *2 acyl side, *3 side chain or, on linkers, in order; H or OH if unused. Where a SMILES comes first, the peptide text is derived from it. Side-chain parts run from the residue outwards. The star is where a group is joined. C18 diacid = O=C(O)CCCCCCCCCCCCCCCCC(=O)*; γGlu = O=C(O)[C@H](CCC(=O)[*:2])N[*:1]; Isovaleryl = CC(C)CC(=O)*; Ahx = NCCCCCC(=O)O

How the values were obtained:
[1] = molecular target: T1, Human Neuropeptide Y2 Receptor (Homo sapiens, UniProt P49146); assay: Radioligand binding competition assay (RLB); details: Table 3, 125I-PYY(1-36) competition; read-out: Ki
T1 construct: purchased CHEMICON HTS066M
T1 sequence (P49146 1-381): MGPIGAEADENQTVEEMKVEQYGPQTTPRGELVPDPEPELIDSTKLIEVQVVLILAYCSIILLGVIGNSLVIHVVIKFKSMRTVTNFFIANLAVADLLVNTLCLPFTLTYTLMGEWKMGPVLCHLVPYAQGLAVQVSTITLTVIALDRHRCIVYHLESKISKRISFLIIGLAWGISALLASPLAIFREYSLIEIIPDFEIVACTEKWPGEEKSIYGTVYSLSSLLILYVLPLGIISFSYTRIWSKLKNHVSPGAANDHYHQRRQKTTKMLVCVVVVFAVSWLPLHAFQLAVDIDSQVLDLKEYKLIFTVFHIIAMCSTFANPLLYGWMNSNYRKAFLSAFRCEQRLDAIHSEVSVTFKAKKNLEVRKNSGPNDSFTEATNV
Procedure, shortened: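 IC50 values come from sigmoidal dose-response fits of scintillation counts after peptides competed for radioligand binding at receptor membranes (0.5 μg protein/well). Incubation ran 2 h at room temperature in HEPES buffer, pH 7.4, with Mg2+, Ca2+ and 0.2% ovalbumin.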

Solubility determination = details: for Sol6: pH 6; for Sol7: pH 7
Procedure, shortened: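 Sample: TFA-salt peptide at 10 mg/ml target in 0.1 M Na diphosphate, pH 6.4 or 7.0, shaken 2 h RT, filtered, diluted to 1 mg/ml.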

[2] = molecular target: T2, human NPY5 receptor (hY5R) (Homo sapiens, UniProt Q15761); assay: HTRF cAMP Gi assay, hY5R
T2 sequence (Q15761 1-445): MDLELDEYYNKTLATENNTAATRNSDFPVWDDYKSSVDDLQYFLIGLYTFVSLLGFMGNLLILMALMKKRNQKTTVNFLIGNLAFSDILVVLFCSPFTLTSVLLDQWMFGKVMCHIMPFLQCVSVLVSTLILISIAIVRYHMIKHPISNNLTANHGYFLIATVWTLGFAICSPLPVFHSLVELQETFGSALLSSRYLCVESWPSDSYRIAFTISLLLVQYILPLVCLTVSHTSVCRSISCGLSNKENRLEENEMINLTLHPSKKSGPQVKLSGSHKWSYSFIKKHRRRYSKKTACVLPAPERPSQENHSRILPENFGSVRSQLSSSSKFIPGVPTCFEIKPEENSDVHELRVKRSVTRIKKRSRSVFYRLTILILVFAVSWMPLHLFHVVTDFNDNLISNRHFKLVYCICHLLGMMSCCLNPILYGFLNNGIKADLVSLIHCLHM

Structure (SMILES): CC[C@H](C)[C@H](NC(=O)[C@H](CCC(=O)O)NC(=O)[C@H](CCC(=O)O)NC(=O)[C@@H]1CCCN1C(=O)[C@H](CO)NC(=O)[C@H](C)NC(=O)[C@H](CC(=O)O)NC(=O)[C@H](CCC(=O)O)NC(=O)[C@H](CCC(=O)O)NC(=O)[C@@H]1CCCN1C(=O)[C@H](CCCCNC(=O)CCCCCNC(=O)CC[C@H](NC(=O)CCCCCCCCCCCCCCCCC(=O)O)C(=O)O)NC(=O)[C@H](CCC(=O)O)NC(=O)[C@@H]1CCCN1C(=O)[C@H](C)NC(=O)CC(C)C)C(=O)N[C@@H](CCC(N)=O)C(=O)N[C@@H](CCCNC(=N)N)C(=O)N[C@@H](Cc1ccc(O)cc1)C(=O)N[C@@H](Cc1ccc(O)cc1)C(=O)N[C@H](C(=O)N[C@@H](CCC(=O)O)C(=O)N[C@@H](CC(C)C)C(=O)N[C@@H](CCCNC(=N)N)C(=O)N[C@@H](Cc1c[nH]cn1)C(=O)N[C@@H](Cc1ccc(O)cc1)C(=O)N[C@@H](Cc1ccc(O)cc1)C(=O)N[C@@H](CC(N)=O)C(=O)N[C@@H](Cc1c[nH]c2ccccc12)C(=O)N[C@@H](CC(C)C)C(=O)N[C@H](C(=O)N[C@@H](CCCNC(=N)N)C(=O)N[C@@H](CCC(N)=O)C(=O)N[C@@H](CCCNC(=N)N)C(=O)N[C@@H](Cc1ccc(O)cc1)C(N)=O)[C@@H](C)O)C(C)C [Compound 52, N{alpha-4}-(3-methylbutanoyl)-N{epsilon-7}-(6-[(4S)-4-carboxy-4-(17-carboxyheptadecanamido)butanamido]hexanoyl)-[4A,7K,9E,17I,18Q,22V,23E,28Y,30W,31L]-hPYY(4-36)]
- Ki [1]: 2.39 nM
- Sol6 (Solubility determination): 9.5 mg/mL
- Sol7 (Solubility determination): 9.5 mg/mL
- EC50 [2]: > 5000 nM

Structure (SMILES): CC[C@H](C)[C@H](NC(=O)[C@H](Cc1ccc(O)cc1)NC(=O)[C@H](Cc1ccc(O)cc1)NC(=O)[C@H](CCCNC(=N)N)NC(=O)[C@H](CCC(N)=O)NC(=O)[C@H](CC(C)C)NC(=O)[C@H](CCC(=O)O)NC(=O)[C@H](CCC(=O)O)NC(=O)[C@@H]1CCCN1C(=O)[C@H](CO)NC(=O)[C@H](C)NC(=O)[C@H](CC(=O)O)NC(=O)[C@H](CCC(=O)O)NC(=O)[C@H](CCC(=O)O)NC(=O)[C@@H]1CCCN1C(=O)[C@H](CCCCNC(=O)CCCCCNC(=O)CC[C@H](NC(=O)CCCCCCCCCCCCCCCCC(=O)O)C(=O)O)NC(=O)[C@H](CCC(=O)O)NC(=O)[C@@H]1CCCN1C(=O)[C@H](C)NC(=O)CC(C)C)C(=O)N[C@@H](CO)C(=O)N[C@@H](CC(C)C)C(=O)N[C@@H](CCCNC(=N)N)C(=O)N[C@@H](Cc1c[nH]cn1)C(=O)N[C@@H](Cc1ccc(O)cc1)C(=O)N[C@@H](Cc1ccc(O)cc1)C(=O)N[C@@H](CC(N)=O)C(=O)N[C@@H](Cc1c[nH]c2ccccc12)C(=O)N[C@@H](CC(C)C)C(=O)N[C@H](C(=O)N[C@@H](CCCNC(=N)N)C(=O)N[C@@H](CCC(N)=O)C(=O)N[C@@H](CCCNC(=N)N)C(=O)N[C@@H](Cc1ccc(O)cc1)C(N)=O)[C@@H](C)O [Compound 76, N{alpha-4}-(3-methylbutanoyl)-N{epsilon-7}-(6-[(4S)-4-carboxy-4-(17-carboxyheptadecanamido)butanamido]hexanoyl)-[4A,7K,9E,18Q,22I,28Y,30W,31L]-hPYY(4-36)]
- Ki [1]: 2.68 nM
- Sol6 (Solubility determination): 10.0 mg/mL
- Sol7 (Solubility determination): 10.0 mg/mL
- EC50 [2]: > 5000 nM

Structure (SMILES): CC(C)CC(=O)N[C@@H](C)C(=O)N1CCC[C@H]1C(=O)N[C@@H](CCC(=O)O)C(=O)N[C@@H](CCCCNC(=O)CCCCCNC(=O)CC[C@H](NC(=O)CCCCCCCCCCCCCCCCC(=O)O)C(=O)O)C(=O)N1CCC[C@H]1C(=O)N[C@@H](CCC(=O)O)C(=O)N[C@@H](CCC(=O)O)C(=O)N[C@@H](CC(=O)O)C(=O)N[C@@H](C)C(=O)N[C@@H](CO)C(=O)N1CCC[C@H]1C(=O)N[C@@H](CCC(=O)O)C(=O)N[C@@H](CCC(=O)O)C(=O)N[C@@H](CC(C)C)C(=O)N[C@@H](CCC(N)=O)C(=O)N[C@@H](CCC(N)=O)C(=O)N[C@@H](Cc1ccc(O)cc1)C(=O)N[C@@H](Cc1ccc(O)cc1)C(=O)N[C@H](C(=O)N[C@@H](CO)C(=O)N[C@@H](CC(C)C)C(=O)N[C@@H](CCCNC(=N)N)C(=O)N[C@@H](Cc1c[nH]cn1)C(=O)N[C@@H](Cc1ccc(O)cc1)C(=O)N[C@@H](Cc1ccc(O)cc1)C(=O)N[C@@H](Cc1c[nH]cn1)C(=O)N[C@@H](Cc1c[nH]c2ccccc12)C(=O)N[C@@H](CC(C)C)C(=O)N[C@H](C(=O)N[C@@H](CCCNC(=N)N)C(=O)N[C@@H](CCC(N)=O)C(=O)N[C@@H](CCCNC(=N)N)C(=O)N[C@@H](Cc1ccc(O)cc1)C(N)=O)[C@@H](C)O)C(C)C [Compound 12, N{alpha-4}-(3-methylbutanoyl)-N{epsilon-7}-(6-[(4S)-4-carboxy-4-(17-carboxyheptadecanamido)butanamido]hexanoyl)[4A,7K,9E,18Q,19Q,22V,28Y,29H,30W,31L]-hPYY(4-36)] (Isovaleryl-APEK([Ahx-γGlu-C18 diacid])PEEDASPEELQQYYVSLRHYYHWLTRQRY-NH2)
- Ki [1]: 4.16 nM
- Sol6 (Solubility determination): 9.4 mg/mL
- Sol7 (Solubility determination): 9.8 mg/mL
- EC50 [2]: > 5000 nM

Structure (SMILES): CC(C)CC(=O)N[C@@H](C)C(=O)N1CCC[C@H]1C(=O)N[C@@H](CCC(=O)O)C(=O)N[C@@H](CCCCNC(=O)CCCCCNC(=O)CC[C@H](NC(=O)CCCCCCCCCCCCCCCCC(=O)O)C(=O)O)C(=O)N1CCC[C@H]1C(=O)N[C@@H](CCC(=O)O)C(=O)N[C@@H](CCC(=O)O)C(=O)N[C@@H](CC(=O)O)C(=O)N[C@@H](C)C(=O)N[C@H](C(=O)N1CCC[C@H]1C(=O)N[C@@H](CCC(=O)O)C(=O)N[C@@H](CCC(=O)O)C(=O)N[C@@H](CC(C)C)C(=O)N[C@@H](CCC(N)=O)C(=O)N[C@@H](CCCCN)C(=O)N[C@@H](Cc1ccc(O)cc1)C(=O)N[C@@H](Cc1ccc(O)cc1)C(=O)N[C@H](C(=O)N[C@@H](CO)C(=O)N[C@@H](CC(C)C)C(=O)N[C@@H](CCCNC(=N)N)C(=O)N[C@@H](Cc1c[nH]cn1)C(=O)N[C@@H](Cc1ccc(O)cc1)C(=O)N[C@@H](Cc1ccc(O)cc1)C(=O)N[C@@H](CC(N)=O)C(=O)N[C@@H](Cc1c[nH]c2ccccc12)C(=O)N[C@@H](CC(C)C)C(=O)N[C@H](C(=O)N[C@@H](CCCNC(=N)N)C(=O)N[C@@H](CCC(N)=O)C(=O)N[C@@H](CCCNC(=N)N)C(=O)N[C@@H](Cc1ccc(O)cc1)C(N)=O)[C@@H](C)O)C(C)C)[C@@H](C)O [Compound 16, N{alpha-4}-(3-methylbutanoyl)-N{epsilon-7}-(6-[(4S)-4-carboxy-4-(17-carboxyheptadecanamido)butanamido]hexanoyl)[4A,7K,9E,13T,18Q,19K,22V,28Y,30W,31L]-hPYY(4-36)]
- Ki [1]: 2.81 nM
- Sol6 (Solubility determination): 10.0 mg/mL
- Sol7 (Solubility determination): 8.3 mg/mL
- EC50 [2]: > 5000 nM

Structure (SMILES): CC(C)CC(=O)N[C@@H](C)C(=O)N1CCC[C@H]1C(=O)N[C@@H](CCC(=O)O)C(=O)N[C@@H](CCCCNC(=O)CCCCCNC(=O)CC[C@H](NC(=O)CCCCCCCCCCCCCCCCC(=O)O)C(=O)O)C(=O)N1CCC[C@H]1C(=O)N[C@@H](CCC(=O)O)C(=O)N[C@@H](CCC(=O)O)C(=O)N[C@@H](CC(=O)O)C(=O)N[C@@H](C)C(=O)N[C@@H](CO)C(=O)N1CCC[C@H]1C(=O)N[C@@H](CCC(=O)O)C(=O)N[C@@H](C)C(=O)N[C@@H](CC(C)C)C(=O)N[C@@H](CCC(N)=O)C(=O)N[C@@H](CCC(=O)O)C(=O)N[C@@H](Cc1ccc(O)cc1)C(=O)N[C@@H](Cc1ccc(O)cc1)C(=O)N[C@H](C(=O)N[C@@H](CO)C(=O)N[C@@H](CC(C)C)C(=O)N[C@@H](CCCNC(=N)N)C(=O)N[C@@H](Cc1c[nH]cn1)C(=O)N[C@@H](Cc1ccc(O)cc1)C(=O)N[C@@H](Cc1ccc(O)cc1)C(=O)N[C@@H](CC(N)=O)C(=O)N[C@@H](Cc1c[nH]c2ccccc12)C(=O)N[C@@H](CC(C)C)C(=O)N[C@H](C(=O)N[C@@H](CCCNC(=N)N)C(=O)N[C@@H](CCC(N)=O)C(=O)N[C@@H](CCCNC(=N)N)C(=O)N[C@@H](Cc1ccc(O)cc1)C(N)=O)[C@@H](C)O)C(C)C [Compound 39, N{alpha-4}-(3-methylbutanoyl)-N{epsilon-7}-(6-[(4S)-4-carboxy-4-(17-carboxyheptadecanamido)butanamido]hexanoyl)[4A,7K,9E,16A,18Q,19E,22V,28Y,30W,31L]-hPYY(4-36)]
- Ki [1]: 2.73 nM
- Sol6 (Solubility determination): 10.0 mg/mL
- Sol7 (Solubility determination): 10.0 mg/mL
